For 7 molecules, inhibition in vivo and IC50 results are on record in ChEMBL document CHEMBL1130824, “The novel cyclopropapyrroloindole(CPI) bisalkylators bearing methoxycarbonyl and trifluoromethyl groups” (Bioorg Med Chem Lett, 1998).

Assay [1] deals with Colon 26. Briefly: Compound was tested for antitumor activity against colon 26 murine adenocarcinoma infected CDF1 mice when administered at a dose of 0.977 ug/Kg intravenously. It is filed as functional. Conditions: Mus musculus, Colon 26, iv; read-out: TGI.
For assay [2], the system named is HeLa. The experiment in a line: Concentration required to inhibit the growth of HeLaS3 cells. It counts as functional, cell-based, Homo sapiens.
The test system of assay [3] is Colon 26. Briefly: Compound was tested for antitumor activity against colon 26 murine adenocarcinoma infected CDF1 mice when administered at a dose of 4000 ug/Kg intravenously. It counts as functional. Conditions: Mus musculus, Colon 26, iv; read-out: TGI.
Assay [4] deals with Colon 26. The experiment in a line: Compound was tested for antitumor activity against colon 26 murine adenocarcinoma infected CDF1 mice when administered at a dose of 31.3 ug/Kg intravenously. It is filed as functional. The following applies: Mus musculus, Colon 26, iv; read-out: TGI.
Assay [5] concerns Colon 26. The experiment in a line: Compound was tested for antitumor activity against colon 26 murine adenocarcinoma infected CDF1 mice when administered at a dose of 15.6 ug/Kg intravenously. It counts as functional. The following applies: Mus musculus, Colon 26, iv; read-out: TGI.
Setting [6] is: Homo sapiens, HeLa, read-out: IC50.

In brackets after ≈: the same amount, converted by molar mass.

For the molecule `COC(=O)c1c(C(F)(F)F)[nH]c2c(O)cc3c(c12)[C@H](CCl)CN3C(=O)c1cc2cc(-c3ccc4[nH]c(C(=O)N5C[C@@H](CCl)c6c5cc(O)c5[nH]c(C(F)(F)F)c(C(=O)OC)c65)cc4c3)ccc2[nH]1`, in assay [1], the inhibition in vivo at 0.000977 mg/kg is 84%. The molecule further showed an IC50 in assay [2] (hela) of 0.0049 ng/mL (≈ 0.00499 nM).

On to `COC(=O)c1c(C(F)(F)F)[nH]c2c(O)cc3c(c12)[C@H](CCl)CN3C(=O)c1cc2cc(Oc3ccc4[nH]c(C(=O)N5C[C@@H](CCl)c6c5cc(O)c5[nH]c(C(F)(F)F)c(C(=O)OC)c65)cc4c3)ccc2[nH]1`, for which the IC50 in assay [2] (setting [6]) worked out at 22 ng/mL (≈ 22.1 nM). In assay [3], the inhibition in vivo at 4 mg/kg was 88%.

With `COC(=O)c1c(C(F)(F)F)[nH]c2c(O)cc3c(c12)[C@H](CCl)CN3C(=O)c1cc2cc(C#Cc3ccc4[nH]c(C(=O)N5C[C@@H](CCl)c6c5cc(O)c5[nH]c(C(F)(F)F)c(C(=O)OC)c65)cc4c3)ccc2[nH]1`, the inhibition in vivo at 0.0313 mg/kg in assay [4] was 82%. Further, in assay [2] (setting [6]), the IC50 came out at 0.35 ng/mL (≈ 0.348 nM).

As to `COC(=O)c1c(C(F)(F)F)[nH]c2c(O)cc3c(c12)[C@H](CCl)CN3C(=O)c1cc2cc(CCc3ccc4[nH]c(C(=O)N5C[C@@H](CCl)c6c5cc(O)c5[nH]c(C(F)(F)F)c(C(=O)OC)c65)cc4c3)ccc2[nH]1`, the inhibition in vivo at 0.0313 mg/kg in assay [4] is 87%. The IC50 in assay [2] (setting [6]) came out at 0.21 ng/mL (≈ 0.208 nM).

For `COC(=O)c1c(C(F)(F)F)[nH]c2c(O)cc3c(c12)[C@H](CCl)CN3C(=O)c1cc2cc(NC(=O)Nc3ccc4[nH]c(C(=O)N5C[C@@H](CCl)c6c5cc(O)c5[nH]c(C(F)(F)F)c(C(=O)OC)c65)cc4c3)ccc2[nH]1`, the inhibition in vivo at 0.0156 mg/kg in assay [5] is 94%. Also, in assay [2] (setting [6]), the IC50 came out at 0.091 ng/mL (≈ 0.0875 nM).

In the case of `Cc1c[nH]c2c(O)cc3c(c12)[C@H](CCl)CN3C(=O)c1cc2cc(NC(=O)Nc3ccc4[nH]c(C(=O)N5C[C@@H](CCl)c6c5cc(O)c5[nH]cc(C)c65)cc4c3)ccc2[nH]1` [BIZELESIN], the inhibition in vivo at 0.0156 mg/kg in assay [5] stood at 90%. For the same molecule, the IC50 in assay [2] (setting [6]) turned out to be 0.06 ng/mL (≈ 0.0736 nM).

In the case of `COC(=O)c1c(C(F)(F)F)[nH]c2c(O)cc3c(c12)[C@H](CCl)CN3C(=O)c1cc2cc(Cc3ccc4[nH]c(C(=O)N5C[C@@H](CCl)c6c5cc(O)c5[nH]c(C(F)(F)F)c(C(=O)OC)c65)cc4c3)ccc2[nH]1`, in assay [2] (setting [6]), the IC50 came to 33 ng/mL (≈ 33.1 nM). Further, in assay [3], the inhibition in vivo at 4 mg/kg was 80%.

Usually IC50 stands for the concentration that inhibits the measured activity by half.
